# pIC50: −log10 of the molar value.
# Tests used:
# [1] = test system: polyamine transport system (PTS); experiment: Radiolabeled spermidine transport assay, human melanoma cell lines; type: cell-based; details: FIG. 8A, WM983B (BRAF V600E), 1 mM DFMO 40 h
# Procedure: (§1) Polyamine transport in tumor cells was evaluated essentially as described (Kramer, et al. (1993) J. Cell Physiol., 155(2):399-407; Nilsson, et al. (2005) Cancer Cell 7(5):433-444). Radioactive spermidine (Net-522 Spermidine Trihydrochloride, [Terminal Methylenes-^3H(n)]) from Perkin Elmer was used (specific activity: 16.6 Ci/mmol). Cells were plated in 96 well plates and grown to approximately 80% confluence. Half of the cells were treated with 1 mM DFMO for 40 hours. After repeated washing with PBS, ^3H-spermidine was added at 1 μM and incubated for 60 minutes at 37° C. Cells were then washed with cold PBS containing 50 μM spermidine and lysed in 0.1% SDS at 37° C. for 30 minutes with mixing. Cell lysates were then aliquoted for scintillation counting and for protein assay using a mini-BioRad assay. Results were expressed as CPM/g protein.
# [2] = test system: polyamine transport system (PTS); experiment: Radiolabeled spermidine transport assay, murine melanoma cells; type: cell-based
# Procedure: (§2) FIG. 9A: Murine BRAF^V600E YUMM1.7 melanoma cells and BRAF^WT B16F10 melanoma cells were treated with increasing doses of AP. After 72 hours of culture, cell survival was determined via EZQuant™ Cell Quantifying assay. IC50 values were calculated by GraphPad Prism 6. FIG. 9B: Murine BRAF^V600E YUMM1.7 melanoma cells and BRAF^WT B16F10 melanoma cells were treated with increasing doses of AP±1 mM DFMO or with PLX4720. After 72 hours of culture, cell survival was determined via EZQuant™ Cell Quantifying assay. IC50 values were calculated by GraphPad Prism 6. […] Cells were washed with cold PBS containing 50 μM spermidine, and cell lysates were assayed for CPM ^3H-spermidine per mg protein by scintillation counting.
# as §1
# [3] = test system: B16F10-sTAC melanoma tumors; experiment: B16F10-sTAC melanoma tumor model; details: for polyamine levels in tumors (HPLC): FIG. 1D, compared with vehicle-treated mice; for cytokine levels in tumors: FIG. 3, compared to vehicle treated mice; for B16F10-sTAC tumor growth compared to vehicle: Trimer PTI 3 mg/kg i.p. daily and/or 0.25% DFMO in drinking water
# Procedure: FIG. 1A: Mice were subcutaneously injected with 5×10^5 B16F10-sTAC melanoma cells. When tumors were 50-100 mm^3 in size, treatment was initiated with either saline, 0.25% DFMO (w/v) in the drinking water, Trimer PTI (i.p., 3 mg/kg, once a day) or both DFMO and Trimer PTI. […] FIG. 1B: Upon sacrifice, tumors were excised and weighed (mean±SEM). FIG. 1C: Spleen weight was determined upon sacrifice (mean±SEM). FIG. 1D: Polyamine levels were determined in tumors by HPLC and normalized to DNA levels in the tissue extracts (nmol/mg DNA). […] Trimer PTI levels were determined in tumor and skin supernatants by mass spectrometry and normalized to tissue protein concentration (nmol/mg protein). n=5-10 mice per group; *=p≤0.05 and #=p≤0.01 compared to vehicle-treated mice.
# Tumor models were established by subcutaneous injections of 5×10^5 B16F10-sTAC cells in C57B16 mice or 5×10^5 CT26.CL25 cells in Balb/c mice. Mice were monitored twice a week for tumor growth. Treatment with 0.25% (w/v) DFMO in the drinking water and the Trimer PTI (3 mg/kg daily by intraperitoneal injection) was initiated when tumors were palpable (50-100 mm^3). For adoptive transfers, spleens were excised and pressed through a nylon filter to obtain a single cell suspension. The resulting suspension was incubated with red cell lysis buffer for 5 minutes to lyse red blood cells. Gr1^+ cells were stained with a PE conjugated antibody and then isolated using anti-PE microbeads (Miltenyi Biotec) as per the manufacturer's instructions. Gr1^+ positive cells were injected into the retro-orbital cavity. Tumor growth was assessed morphometrically using calipers, and tumor volumes were calculated using the formula V (mm^3)=π/6×A×B^2 (A is the larger diameter and B is the smaller diameter).
# Upon sacrifice, splenocytes from B16F10-sTAC tumor bearing mice and tumor cell suspensions from CT26.CL25 tumor bearing mice were analyzed for IFN-γ producing cells by enzyme-linked immunosorbent spot (ELISpot) assay. Multiscreen filtration plates (Millipore) were coated with 0.5 μg/mL of purified anti-mouse IFN-γ capture antibody (Biolegend) overnight at 4° C. Single-cell suspensions of splenocytes or tumors were plated at 1×10^6 and 5×10^5 per well respectively. For ELISpot assays with splenocytes from B16F10-sTAC tumor bearing mice, cells were stimulated with the […] (SEQ ID NO: 1) peptide (Anaspec) at […]. […] After 16 hours of stimulation at 37° C., the cells were removed by washing and spots were developed with a biotinylated anti-IFN-γ detection antibody and streptavidin-horseradish peroxidase conjugate followed by NITRO-blue tetrazolium chloride and 5-bromo-4-chloro-3′-indoylphosphate p-toluidine salt substrate (Sigma). Spot numbers were counted, and data were reported as IFN-γ-spot forming cells per 10^6 cells.
# Mouse tumor tissues were fixed in 4% paraformaldehyde in PBS overnight and embedded in paraffin. Sections were deparaffinized, hydrated, and then heated in 0.01 mol/L sodium citrate buffer (pH 6.0) in a steamer for 8 minutes. Sections were incubated with the primary antibody (rat monoclonal anti-mouse F4/80 [BioRad MCA497GA]) for 2 hours at room temperature followed by biotinylated secondary and then an avidin HRP complex (Vectastain Elite ABC KIT, Vector Laboratories, INC). Immunoreactive cells were localized by incubating the sections with diaminobenzidine and peroxide and then counterstaining with hematoxylin. Pictures were obtained using a Zeiss Axiophot microscope (Carl Zeiss Inc.) with a digital color camera and corresponding software.
# B16F10-sTAC tumors were flash frozen in liquid nitrogen, ground and homogenized in PBS containing 0.5 μM dithiothreitol, 0.5 μM Pefabloc and 8 μg/mL leupeptin. Samples were analyzed for monocyte chemoattractant protein-1 (MCP-1), interleukin-6 (IL-6).
# [4] = test system: BRAF^V600E YUMM1.7 melanoma cells; experiment: Cell viability assay (EZQuant), YUMM1.7; type: cell-based, murine; details: FIG. 9B, 72 h
# Procedure: as §2
# [5] = test system: 1205Lu melanoma spheroids; experiment: 3D spheroid culture viability (CellTiter-Glo); type: cell-based, human; details: FIG. 10, 25 μM each drug, 48 h, 3D spheroids on NCPs
# Procedure: BRAF^V600E mutant 1205Lu melanoma cells were seeded at 1×10^4 cells in each well of the […] NCPs. When spheroids were formed on day 3, the 3D cultures of spheroids were treated with PLX4720 (25 μM) and/or AP (25 μM). 2D monolayer cultures of 1205Lu melanoma cells were also treated with PLX4720 (25 μM) and/or AP (25 μM). After drug treatment for 48 hours, the viability of spheroids and monolayer cultures was assayed using the CellTiter-Glo Luminescent Cell Viability Assay. The percent cell survival in each treatment group was calculated relative to cells treated with medium only under the same conditions. As controls, the growth of cells without drug treatment under each condition was normalized as 100% separately. The means are presented±SD.
# The inorganic nanoscale scaffolding NanoCulture plates (NCP) were purchased from SCIVAX. The base of each NCP is constructed with a transparent cyclo-olefin resinous sheet with a nanoscale indented pattern. To form spheroids, 1205Lu human melanoma cells were seeded in 96-well NCPs at 1×10^4 cells/well in MCDB153 (Sigma)/Leibovitz's L-15 (Cellgro) medium (4:1 ratio) supplemented with 2% heat-inactivated fetal calf serum and 2 mM CaCl2 and incubated in a conventional cell incubator at 37° C. in an atmosphere of 5% CO2 and normal O2 levels. […]
# [6] = test system: 1205Lu melanoma cells transduced with JARID1B-promoter-EGFP-reporter; experiment: JARID1B-promoter-EGFP reporter in spheroids; type: cell-based, human; details: 2-day exposure, 1205Lu grown as spheroids
# Description: Treatment with a BRAF inhibitor such as PLX4720 enriches a slow-cycling cancer stem cell-like (CSC) subpopulation of melanoma cells that is characterized by stem cell markers including JARID1B and spheroid formation (Roesch, et al. (2010) Cell 141(4):583-594; Roesch, et al. (2013) Cancer Cell 23(6):811-825). It is thought that cancer stem cell populations exist in a hypoxic microenvironment (Schwab, et al. (2012) Breast Cancer Res., 14(1):R6; Mathieu, et al. (2011) Cancer Res., 71(13):4640-4652; Mohyeldin, et al. (2010) Cell Stem Cell, 7(2):150-161). Endogenous ROS levels are increased in slow cycling JARID1B^high melanoma cells as a result of increased mitochondrial respiration and oxidative phosphorylation (Roesch, et al. (2013) Cancer Cell 23(6):811-825). […] Using 1205Lu melanoma cells stably transduced with a JARID1B-promoter-EGFP-reporter construct (Roesch, et al.
# [7] = test system: BRAF-mutant melanoma tumor; experiment: BRAF-mutant melanoma tumor in mice treated with PLX4720; type: in vivo; details: FIG. 11, PLX4720 alone
# Procedure: FIG. 11 provides a graph of tumor volume in mice over time after treatment with PLX4720 alone or PLX4720 with delayed administration of AP and DFMO.
# In addition to the above, the efficacy of AP in vivo was also tested.
# [8] = test system: BRAF^V600E melanoma cells; details: WM983B, WM3734, 1205Lu, WM989, WM88; read-out: IC50 (cell viability); cited from earlier work
# [9] = test system: BRAF^WT melanoma cells; details: WM3451, WM3743, WM3211; read-out: IC50 (cell viability); cited from earlier work
# [10] = compared to AMXT1501; cited from earlier work
SMILES,polyamine transport activity after DFMO treatment [1],"polyamine uptake after DFMO treatment ([2]; B16F10 retrovirally expressing BRAF V600E, 1 mM DFMO)","polyamine uptake after DFMO treatment ([2]; FIG. 9C, B16F10 (BRAF WT), 1 mM DFMO 40 h)","PTS activity after DFMO treatment ([2]; FIG. 9C, YUMM1.7 (BRAF V600E), 1 mM DFMO 40 h)",polyamine levels in tumors (HPLC) [3],cytokine levels in tumors [3],B16F10-sTAC tumor growth compared to vehicle [3],sensitivity to PLX4720 (IC50 compared to B16F10 cells) [4],cell viability of spheroid cultures [5],enrichment of JARID1B-driven GFP expressing cells [6] [fold],BRAF-mutant melanoma tumor volume over time [7],pIC50 [8],pIC50 [9],"spleen weight ([3]; FIG. 1C, Trimer PTI with or without DFMO)","accumulation in tumor compared to non-tumor bearing skin (mass spectrometry) ([3]; FIG. 1E, PBT-treated mice) [fold]",water solubility [10]
"NCCC[C@](N)(C(=O)O)C(F)F [DFMO, α-difluoromethylornithine, reference compound]",dramatically increased polyamine transport activity,enhance polyamine uptake,no significant induction,marked DFMO-induction of PTS activity,reduced the levels of putrescine,did not significantly alter,only modestly reduced,–,–,–,–,–,–,–,–,–
"CCCS(=O)(=O)Nc1ccc(F)c(C(=O)c2c[nH]c3ncc(Cl)cc23)c1F [PLX4720, reference compound]",–,–,–,–,–,–,–,very sensitive,more resistant,4,initially quickly regress but then grow back,≥ 5.52,< 5.52,–,–,–
CNCCCCNCCCCNCc1cc(CNCCCCNCCCCNC)cc(CNCCCCNCCCCNC)c1 [Trimer PTI],–,–,–,–,no discernible effect,did not significantly alter,only modestly reduced,–,–,–,–,–,–,no significant effect,30,more water-soluble

# — patent US20190365673A1, “Immunomodulatory Compounds” (Lankenau Institute for Medical Research, priority 2016, published 2019)
